The nature of data set [1]: Tmax in Sprague-Dawley rat at 10 mg/kg, po administered via gavage by LC-MS/MS analysis. In kind it is ADME, organism-based. Particulars: in vivo.
The nature of data set [2]: AUC in Sprague-Dawley rat at 10 mg/kg, po administered via gavage by LC-MS/MS analysis. It counts as ADME, organism-based. The conditions noted are these: in vivo.
Data set [3] is described as follows: Cmax in Sprague-Dawley rat at 10 mg/kg, po administered via gavage by LC-MS/MS analysis. In kind it is ADME, organism-based. On the set-up: dose 10 mg/kg, route oral. The conditions noted are these: in vivo.
Data set [4] can be described thus: Elimination half life in Sprague-Dawley rat at 10 mg/kg, po administered via gavage by LC-MS/MS analysis. It counts as ADME, organism-based. Particulars: in vivo, read-out: beta t1/2 (converted).
Data set [5] concerns MV4-11. Description: Antitumor activity against human MV4-11 cells xenografted in Balb/c nude mouse assessed as tumor growth inhibition at 100 mg/kg, po administered once daily for 30 days relative to control. In kind it is functional. The conditions noted are these: MV4-11, po, 720 h, read-out: TGI. A general note: A xenograft is tissue or cells of one species grown in another, often human tumour cells in immunodeficient mice.

Data set [6] can be described thus: Aqueous solubility of the compound. In kind it is physicochemical. Particulars: buffer.
Data set [7] addresses Protein arginine N-methyltransferase 1 (Homo sapiens, UniProt Q99873). Kind of data set: Inhibition of human N-terminal GST-tagged PRMT1 (2 to end residues) expressed in baculovirus infected Sf9 insect cells preincubated for 15 mins followed by substrate and [3H]SAM addition and measured after 1 hr by microbeta method.
Another data set concerns the target PRMT5/MEP50 complex (Homo sapiens, UniProt O14744). Kind of data set: Inhibition of recombinant human N-terminal FLAG-tagged PRMT5 (2 to end residues)/human N-terminal His-tagged MEP50 (2 to end residues) expressed in HEK293F cells using H4 peptide as substrate preincubated for 15 mins followed by substrate and [3H]SAM addition and measured after 1 hr by scintillation counting method.

Data set [8] deals with MV4-11. Kind of data set: Antiproliferative activity against human MV4-11 cells supplemented with fresh medium containing compound every 4 days measured on day 12 by Celltiter-glo luminescent cell viability assay. It counts as functional. For orientation: In ATP-based viability assays light output follows the ATP content of the culture.
Data set [9] deals with Protein arginine N-methyltransferase 6 (Homo sapiens, UniProt Q96LA8). Description: Inhibition of human N-terminal His-tagged PRMT6 (2 to 375 residues) expressed in Escherichia coli preincubated for 15 mins followed by substrate addition and measured after 1 hr by Alphalisa assay. In general terms: In Alpha technology, singlet oxygen from a donor bead excites a nearby acceptor bead.
Protein arginine N-methyltransferase 6, sequence (Q96LA8 whole entry, the tested form may be a part): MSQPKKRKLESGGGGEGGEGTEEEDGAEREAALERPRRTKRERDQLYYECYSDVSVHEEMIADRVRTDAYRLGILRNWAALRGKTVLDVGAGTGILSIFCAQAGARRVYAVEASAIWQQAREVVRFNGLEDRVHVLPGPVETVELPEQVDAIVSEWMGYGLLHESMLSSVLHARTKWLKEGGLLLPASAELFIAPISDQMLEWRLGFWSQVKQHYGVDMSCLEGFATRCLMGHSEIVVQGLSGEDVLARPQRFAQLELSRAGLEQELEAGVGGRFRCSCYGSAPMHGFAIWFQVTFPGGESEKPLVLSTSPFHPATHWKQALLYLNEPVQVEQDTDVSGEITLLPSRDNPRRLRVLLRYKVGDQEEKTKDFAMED

Data set [10] has as its target Protein arginine N-methyltransferase 8 (Homo sapiens, UniProt Q9NR22). Description: Inhibition of human N-terminal His/FLAG-tagged PRMT8 (61 to 394 residues) expressed in baculovirus infected Sf9 insect cells preincubated for 15 mins followed by substrate addition and measured after 1 hr by Alphalisa assay.
Data set [11] has as its target Protein arginine N-methyltransferase 3 (Homo sapiens, UniProt O60678). Kind of data set: Inhibition of human N-terminal GST-tagged PRMT3 (2 to end residues) expressed in Escherichia coli preincubated for 15 mins followed by substrate addition and measured after 1 hr by Alphalisa assay.
The target in data set [12] is T1, Protein arginine N-methyltransferase 7 (Homo sapiens, UniProt Q9NVM4).
T1 sequence (Q9NVM4 whole entry): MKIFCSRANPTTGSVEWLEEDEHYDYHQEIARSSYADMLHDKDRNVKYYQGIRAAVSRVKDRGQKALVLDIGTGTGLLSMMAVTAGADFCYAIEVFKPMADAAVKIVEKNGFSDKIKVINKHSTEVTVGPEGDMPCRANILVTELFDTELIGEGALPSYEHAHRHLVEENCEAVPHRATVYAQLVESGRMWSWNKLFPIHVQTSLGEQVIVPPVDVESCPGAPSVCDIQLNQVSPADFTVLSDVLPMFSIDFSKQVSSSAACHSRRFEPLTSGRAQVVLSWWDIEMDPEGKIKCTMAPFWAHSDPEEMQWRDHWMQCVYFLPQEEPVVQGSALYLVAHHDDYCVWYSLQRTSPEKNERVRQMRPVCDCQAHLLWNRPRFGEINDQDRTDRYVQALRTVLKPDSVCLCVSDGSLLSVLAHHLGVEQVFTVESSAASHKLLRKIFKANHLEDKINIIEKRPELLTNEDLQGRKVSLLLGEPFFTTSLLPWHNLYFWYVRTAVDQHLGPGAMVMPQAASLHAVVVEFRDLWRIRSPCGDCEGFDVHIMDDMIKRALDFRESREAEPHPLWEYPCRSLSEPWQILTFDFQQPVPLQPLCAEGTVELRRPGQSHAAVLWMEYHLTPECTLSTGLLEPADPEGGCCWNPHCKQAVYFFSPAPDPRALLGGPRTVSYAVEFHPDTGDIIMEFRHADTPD
Description: Inhibition of recombinant full length human N-terminal FLAG-tagged PRMT7 expressed in Sf9 insect cells preincubated for 15 mins followed by substrate and [3H]SAM addition and measured after 240 mins by microbeta method.

Data set [13] has as its system MV4-11. Description: Antiproliferative activity against human MV4-11 cells supplemented with fresh medium containing compound every 4 days measured on day 8 by Celltiter-glo luminescent cell viability assay. It counts as functional.
Data set [14] deals with T2, Histone-arginine methyltransferase CARM1 (Homo sapiens, UniProt Q86X55).
T2 sequence (Q86X55 whole entry): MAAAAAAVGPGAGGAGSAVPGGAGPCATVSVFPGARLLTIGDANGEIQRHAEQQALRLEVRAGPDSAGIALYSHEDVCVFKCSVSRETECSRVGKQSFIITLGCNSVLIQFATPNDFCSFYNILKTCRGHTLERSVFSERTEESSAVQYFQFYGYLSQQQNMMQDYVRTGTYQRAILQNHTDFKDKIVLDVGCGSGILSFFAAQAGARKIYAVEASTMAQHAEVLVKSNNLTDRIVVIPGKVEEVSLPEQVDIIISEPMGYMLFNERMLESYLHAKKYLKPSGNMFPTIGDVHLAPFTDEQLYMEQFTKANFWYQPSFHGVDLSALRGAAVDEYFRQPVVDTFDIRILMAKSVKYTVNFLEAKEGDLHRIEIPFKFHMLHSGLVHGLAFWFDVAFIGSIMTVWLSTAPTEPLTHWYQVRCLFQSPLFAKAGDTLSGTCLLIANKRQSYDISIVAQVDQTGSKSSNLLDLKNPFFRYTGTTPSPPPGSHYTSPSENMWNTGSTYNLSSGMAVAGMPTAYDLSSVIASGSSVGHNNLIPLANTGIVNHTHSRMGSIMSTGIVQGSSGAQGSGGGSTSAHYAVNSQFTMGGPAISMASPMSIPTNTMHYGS
Kind of data set: Inhibition of human N-terminal FLAG-tagged PRMT4 (2 to end residues) expressed in FreeStyle 293-F cells preincubated for 15 mins followed by substrate addition and measured after 1 hr by Alphalisa assay. In kind it is cell-based.

Data set [15] has as its target Protein arginine N-methyltransferase 5 (Homo sapiens) (UniProt O14744). Kind of data set: Inhibition of PRMT5 in human MV411 cells assessed as reduction in SmD3 methylation after 4 days by Western blot analysis. It counts as cell-based.

Bounds are passed on as bounds.

PRMT5/MEP50 complex, sequence (O14744 whole entry): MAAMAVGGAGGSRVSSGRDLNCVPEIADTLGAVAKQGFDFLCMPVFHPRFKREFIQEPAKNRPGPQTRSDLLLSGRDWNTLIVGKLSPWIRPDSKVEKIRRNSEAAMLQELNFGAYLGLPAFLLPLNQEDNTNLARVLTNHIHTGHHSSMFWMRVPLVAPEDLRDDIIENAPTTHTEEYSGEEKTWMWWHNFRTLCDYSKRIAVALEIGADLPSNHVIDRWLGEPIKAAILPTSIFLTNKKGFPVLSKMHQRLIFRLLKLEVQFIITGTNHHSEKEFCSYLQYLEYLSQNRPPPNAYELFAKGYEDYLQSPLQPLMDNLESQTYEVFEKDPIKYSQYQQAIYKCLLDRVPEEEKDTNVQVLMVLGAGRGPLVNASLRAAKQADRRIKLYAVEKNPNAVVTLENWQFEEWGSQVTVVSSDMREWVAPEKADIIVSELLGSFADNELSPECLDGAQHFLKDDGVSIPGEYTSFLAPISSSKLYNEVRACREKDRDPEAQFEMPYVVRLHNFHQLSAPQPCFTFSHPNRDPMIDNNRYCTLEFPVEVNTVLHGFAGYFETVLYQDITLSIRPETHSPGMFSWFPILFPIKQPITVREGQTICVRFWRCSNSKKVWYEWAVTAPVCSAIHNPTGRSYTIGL
PRMT5/MEP50 complex, sequence (Q9BQA1 whole entry, further chain): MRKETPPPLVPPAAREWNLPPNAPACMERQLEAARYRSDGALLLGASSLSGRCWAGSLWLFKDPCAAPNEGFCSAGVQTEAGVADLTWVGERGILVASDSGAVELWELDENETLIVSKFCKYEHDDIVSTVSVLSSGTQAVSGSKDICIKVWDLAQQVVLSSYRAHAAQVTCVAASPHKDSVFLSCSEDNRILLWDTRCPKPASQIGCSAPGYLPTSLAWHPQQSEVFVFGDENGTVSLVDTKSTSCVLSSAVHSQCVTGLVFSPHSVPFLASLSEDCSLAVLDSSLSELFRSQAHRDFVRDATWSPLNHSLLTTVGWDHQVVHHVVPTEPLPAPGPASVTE
Protein arginine N-methyltransferase 5 (Homo sapiens), sequence (O14744 whole entry): as the sequence (O14744 whole entry) above
Protein arginine N-methyltransferase 1, sequence (Q99873 whole entry): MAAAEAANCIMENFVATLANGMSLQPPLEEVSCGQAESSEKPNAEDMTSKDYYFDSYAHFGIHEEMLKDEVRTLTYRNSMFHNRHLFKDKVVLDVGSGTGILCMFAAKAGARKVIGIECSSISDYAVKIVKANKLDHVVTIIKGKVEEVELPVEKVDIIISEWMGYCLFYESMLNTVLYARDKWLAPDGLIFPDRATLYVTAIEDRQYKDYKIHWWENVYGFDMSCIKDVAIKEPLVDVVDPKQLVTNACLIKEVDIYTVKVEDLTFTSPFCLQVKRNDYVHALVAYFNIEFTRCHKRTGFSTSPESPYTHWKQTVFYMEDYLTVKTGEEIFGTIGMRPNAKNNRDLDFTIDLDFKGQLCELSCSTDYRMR
Protein arginine N-methyltransferase 8, sequence (Q9NR22 whole entry, the tested form may be a part): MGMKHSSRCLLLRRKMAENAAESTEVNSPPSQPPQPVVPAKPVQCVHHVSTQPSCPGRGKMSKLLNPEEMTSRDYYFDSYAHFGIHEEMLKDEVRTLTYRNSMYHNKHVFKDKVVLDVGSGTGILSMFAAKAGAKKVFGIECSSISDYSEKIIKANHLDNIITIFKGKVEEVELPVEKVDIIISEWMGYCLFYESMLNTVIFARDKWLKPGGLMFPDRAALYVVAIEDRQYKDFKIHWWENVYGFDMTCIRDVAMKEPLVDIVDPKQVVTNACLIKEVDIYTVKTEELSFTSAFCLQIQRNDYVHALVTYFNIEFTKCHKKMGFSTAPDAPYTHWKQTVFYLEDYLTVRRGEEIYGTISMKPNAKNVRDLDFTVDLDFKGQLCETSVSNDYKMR
Protein arginine N-methyltransferase 3, sequence (O60678 whole entry): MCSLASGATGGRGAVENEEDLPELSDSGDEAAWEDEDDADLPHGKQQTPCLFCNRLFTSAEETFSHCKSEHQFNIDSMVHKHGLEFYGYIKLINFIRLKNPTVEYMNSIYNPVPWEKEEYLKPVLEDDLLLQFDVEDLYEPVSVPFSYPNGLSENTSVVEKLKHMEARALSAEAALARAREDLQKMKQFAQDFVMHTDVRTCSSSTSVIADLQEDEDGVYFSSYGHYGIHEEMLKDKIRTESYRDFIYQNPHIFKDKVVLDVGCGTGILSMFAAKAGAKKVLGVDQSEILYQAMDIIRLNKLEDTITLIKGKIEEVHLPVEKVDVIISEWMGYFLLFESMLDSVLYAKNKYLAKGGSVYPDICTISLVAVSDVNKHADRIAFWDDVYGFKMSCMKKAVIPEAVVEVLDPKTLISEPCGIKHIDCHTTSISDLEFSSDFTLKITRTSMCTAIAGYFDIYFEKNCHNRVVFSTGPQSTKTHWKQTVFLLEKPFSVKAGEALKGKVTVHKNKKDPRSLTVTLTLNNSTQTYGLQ

`COc1ccc(C(=O)N2CCc3cc(C(=O)NC[C@H](O)CN4CCc5ccccc5C4)ccc3C2)cc1.Cl`: the time of peak concentration (Tmax) in data set [1] came to 25 min. The AUC in [2] came out at 94.6 ng·h/mL. The compound also returned a peak concentration (Cmax) in [3] of 102 ng/mL. In data set [4], the half-life is 128 min.
As for `Cl.O=C(NC[C@H](O)CN1CCc2ccccc2C1)c1ccc2c(c1)CCN(C(=O)c1ccc(Br)cc1)C2`, the Tmax in data set [1] is 35 min. In data set [2], this compound gave an AUC of 168 ng·h/mL. Moreover, the highest level in data set [3] (Cmax) was 32 ng/mL. The half-life in data set [4] was 276 min. Also, in the data set on MV4-11 [5], the inhibition in vivo at 100 mg/kg came out at 54%. Besides, the solubility entry in data set [6] is recorded as “Soluble”.
As for `CN(C)c1ccc(C(=O)N2CCc3cc(C(=O)NC[C@H](O)CN4CCc5ccccc5C4)ccc3C2)cc1.Cl`, in [1], the Tmax was 20 min. The same compound registered an exposure (AUC) in [2] of 15.8 ng·h/mL. Besides, in [3], the Cmax was determined as 14.3 ng/mL. Also, the half-life in data set [4] was 56.7 min.
On to `O=C(NC[C@H](O)CN1CCc2ccccc2C1)c1ccc2c(c1)CCN(C(=O)c1ccc(Br)cc1)C2` [listing 1 of 2 here], for which the IC50 in data set [7] was above 100000 nM; at PRMT5/MEP50 complex, 8.5 nM; in [9], above 100000 nM; in data set [10], above 100000 nM; in data set [11] it was above 100000 nM; in [12], above 100000 nM. The compound also showed a concentration for half-maximal inhibition (IC50) in data set [14] above 100000 nM. Besides, the GI50 stood at 18 nM in the data set with MV4-11 [8] and 25 nM in the data set with MV4-11 [13]. Further, the solubility entry in [6] is on record as “Insoluble”.
On to `O=C(NCC(O)CN1CCc2ccccc2C1)c1cc2c(s1)CCN(C(=O)c1ccccc1F)C2` (centres undefined), for which the IC50 on PRMT5/MEP50 complex was found to be 45 nM. For the same compound, the GI50 was determined as 124 nM in the data set on MV4-11 [8] and 261 nM in the data set on MV4-11 [13].
With `CC(c1ccccc1)N1CCc2sc(C(=O)NCC(O)CN3CCc4ccccc4C3)cc2C1` (centres undefined), the IC50 at PRMT5/MEP50 complex is 60 nM. The concentration for 50% growth inhibition (GI50) with MV4-11 [8] was 172 nM; with MV4-11 [13], 436 nM.
On to `O=C(NCC(O)CN1CCc2ccccc2C1)c1cc2c(s1)CCN(C(=O)c1ccc3ccccc3c1)C2` (centres undefined), for which the half-maximal inhibitory concentration (IC50) at PRMT5/MEP50 complex was determined as 22 nM. The concentration for 50% growth inhibition (GI50) amounted to 178 nM in the data set with MV4-11 [8] and 322 nM in the data set on MV4-11 [13].
In the case of `O=C(NC[C@H](O)CN1CCc2ccccc2C1)c1ccc2c(c1)CCN(C(=O)c1ccc(Br)cc1)C2` [listing 2 of 2 here], in data set [15], the inhibition result was “Dose-dependent effect”.

The Tmax is the time at which the peak concentration occurs. By AUC is commonly meant concentration integrated over time. Read a high AUC as high exposure. A word on the Cmax: it is the maximum level reached in the sampled fluid or tissue. What is called IC50 is the concentration that inhibits the measured activity by half. One may read the GI50 as the concentration giving 50% growth inhibition.

For the origin of these results see ChEMBL document CHEMBL4411309, “Discovery of 2-substituted-N-(3-(3,4-dihydroisoquinolin-2(1H)-yl)-2-hydroxypropyl)-1,2,3,4-tetrahydroisoquinoline-6-carboxamide as potent and selective protein arginine methyltransferases 5 inhibitors: Design, synthesis and biological evaluation” (Eur J Med Chem, 2019).
